Test results published in ChEMBL document CHEMBL1649307, “Development, validation, and routine application of a high-performance liquid chromatography method coupled with a single mass detector for quantification of itraconazole, voriconazole, and posaconazole in human plasma” (Antimicrob Agents Chemother, 2010).
Values belong to the compound of their own block, whether it stands above or below them.

Key:
Type in all cases: ADME, organism-based
Conditions in all cases: in vivo
Plasma [1] = assay: Metabolic stability in healthy human plasma assessed as compound recovery at 3 mg/kg QD; design: dose 3 mg/kg
Plasma [2] = assay: Metabolic stability in healthy human plasma assessed as compound recovery at 6 mg/kg BID; design: dose 6 mg/kg
Plasma [3] = assay: Metabolic stability in healthy human plasma assessed as compound recovery at 7 mg/kg BID; design: dose 7 mg/kg

Stability (Plasma [1]): 114.5%
SMILES: CCC(C)n1ncn(-c2ccc(N3CCN(c4ccc(OCC5COC(Cn6cncn6)(c6ccc(Cl)cc6Cl)O5)cc4)CC3)cc2)c1=O (stereo not drawn) [ITRACONAZOLE]

SMILES: CC[C@@H]([C@H](C)O)n1ncn(-c2ccc(N3CCN(c4ccc(OC[C@@H]5CO[C@@](Cn6cncn6)(c6ccc(F)cc6F)C5)cc4)CC3)cc2)c1=O [POSACONAZOLE]
Stability (Plasma [2]): 85.5%

SMILES: C[C@@H](c1ncncc1F)[C@](O)(Cn1cncn1)c1ccc(F)cc1F [VORICONAZOLE]
Stability (Plasma [3]): 97.2%
